The IC50 is the concentration that gives 50% inhibition.

Structures can show the parent of a compound that is named as a salt.

20 molecules from patent US10351575B2, “Bicyclic urea, thiourea, guanidine and cyanoguanidine compounds useful for the treatment of pain” (Array BioPharma Inc., priority 2012, dated 2019) can be followed below.

Chain of His-tagged recombinant human TrkA (P04629 440-796): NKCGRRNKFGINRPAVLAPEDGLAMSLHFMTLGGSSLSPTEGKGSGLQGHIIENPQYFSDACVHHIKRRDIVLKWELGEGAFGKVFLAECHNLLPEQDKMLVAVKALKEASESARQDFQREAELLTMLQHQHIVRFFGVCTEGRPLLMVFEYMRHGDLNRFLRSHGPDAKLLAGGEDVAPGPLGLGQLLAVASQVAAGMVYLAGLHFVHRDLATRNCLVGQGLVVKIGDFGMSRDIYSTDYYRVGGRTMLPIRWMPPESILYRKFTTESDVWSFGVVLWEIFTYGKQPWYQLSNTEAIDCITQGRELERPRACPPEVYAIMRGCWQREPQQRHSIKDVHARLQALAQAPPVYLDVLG

This assay concerns the target His-tagged recombinant human TrkA (Homo sapiens (Human), UniProt P04629). Put plainly: TrkA LanthaScreen Eu Kinase Binding Assay. As to conditions: averaged IC50; TR-FRET binding, 60 min, 22° C.; read-out: TrkA Enzyme IC50. The method in brief: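 TR-FRET binding: 5 nM His-tagged human TrkA cytoplasmic domain with 4 nM Alexa-Fluor Tracer 236, 2 nM biotin anti-His and 2 nM Eu-streptavidin. Buffer was 25 mM MOPS pH 7.5, 5 mM MgCl2, 0.005% Triton X-100, 2% DMSO, 60 min at 22° C. IC50 from a four-parameter fit of ratiometric percent of control.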
(In general: TR-FRET usually uses a lanthanide donor and a delayed reading to cut background.)
As for `Cc1c(-c2cnn(C)c2)nn(-c2ccccc2)c1NC(=O)NC1CN(CC(F)(F)F)C(=O)c2ccccc21` (centres unmarked) [Example 116, 1-(1′,4-dimethyl-1-phenyl-1H,1′H-[3,4′-bipyrazol]-5-yl)-3-(1-oxo-2-(2,2,2-trifluoroethyl)-1,2,3,4-tetrahydroisoquinolin-4-yl)urea], the IC50 was less than 100 nM.
With `Cc1ncc(-c2nn(-c3ccccc3)c(NC(=O)N[C@@H]3c4ccccc4C(C)(C)C[C@H]3O)c2C)cn1` [Example 117, 1-((1,2-trans)-2-hydroxy-4,4-dimethyl-1,2,3,4-tetrahydronaphthalen-1-yl)-3-(4-methyl-3-(2-methylpyrimidin-5-yl)-1-phenyl-1H-pyrazol-5-yl)urea] the figure was less than 100 nM; with `CNC(=O)c1nn(-c2ccccc2)c(NC(=O)NC2CN(CC(F)(F)F)C(C)c3ccc(COC)cc32)c1C` (centres unmarked) [Example 129, 5-(3-(6-(methoxymethyl)-1-methyl-2-(2,2,2-trifluoroethyl)-1,2,3,4-tetrahydroisoquinolin-4-yl)ureido)-N,4-dimethyl-1-phenyl-1H-pyrazole-3-carboxamide], less than 100 nM; with `Cc1ncc(-c2nn(-c3ccccc3)c(NC(=O)NC3CN(CC(F)(F)F)C(=O)c4ccccc43)c2C)cn1` (centres unmarked) [Example 130, 1-(4-methyl-3-(2-methylpyrimidin-5-yl)-1-phenyl-1H-pyrazol-5-yl)-3-(1-oxo-2-(2,2,2-trifluoroethyl)-1,2,3,4-tetrahydroisoquinolin-4-yl)urea], less than 100 nM.
With `Cc1nn(-c2ccccc2)c(NC(=O)NC2CN(CC(F)(F)F)C(=O)c3ccccc32)c1C` (centres unmarked) [Example 131, 1-(3,4-dimethyl-1-phenyl-1H-pyrazol-5-yl)-3-(1-oxo-2-(2,2,2-trifluoroethyl)-1,2,3,4-tetrahydroisoquinolin-4-yl)urea], the IC50 was less than 100 nM.
With `Cc1c(OC2CN3CCC2CC3)nn(-c2ccccc2)c1NC(=O)N[C@@H]1c2ccccc2C(C)(C)C[C@H]1O` (stereo partly drawn) [Example 132, 1-((1R,2R)-2-hydroxy-4,4-dimethyl-1,2,3,4-tetrahydronaphthalen-1-yl)-3-(4-methyl-1-phenyl-3-(quinuclidin-3-yloxy)-1H-pyrazol-5-yl)urea] the figure was less than 100 nM.
On to `Cc1c(OCCN2CCOCC2)nn(-c2ccccc2)c1NC(=O)N[C@@H]1c2ccccc2C(C)(C)C[C@H]1O` [Example 133, 1-((1R,2R)-2-hydroxy-4,4-dimethyl-1,2,3,4-tetrahydronaphthalen-1-yl)-3-(4-methyl-3-(2-morpholinoethoxy)-1-phenyl-1H-pyrazol-5-yl)urea], for which the IC50 is less than 100 nM.
With `Cc1c(OCCN(C)C)nn(-c2ccccc2)c1NC(=O)N[C@@H]1c2ccccc2C(C)(C)C[C@H]1O` [Example 134, 1-(3-(2-(dimethylamino)ethoxy)-4-methyl-1-phenyl-1H-pyrazol-5-yl)-3-((1R,2R)-2-hydroxy-4,4-dimethyl-1,2,3,4-tetrahydronaphthalen-1-yl)urea], the IC50 was less than 100 nM.
With `COc1nn(-c2ccccc2)c(NC(=O)N[C@@H]2c3ccccc3CC[C@@H]2O)c1C` [Example 135, 1-((1R,2S)-2-hydroxy-1,2,3,4-tetrahydronaphthalen-1-yl)-3-(3-methoxy-4-methyl-1-phenyl-1H-pyrazol-5-yl)urea] the figure was 1000 to 3000 nM; with `Cc1c(-c2cnn(C)c2)nn(-c2ccccc2)c1NC(=O)NC1CN(CC(F)(F)F)C2(CC2)c2ccccc21` (centres unmarked) [Example 136, 1-(1′,4-dimethyl-1-phenyl-1H,1′H-[3,4′-bipyrazol]-5-yl)-3-(2′-(2,2,2-trifluoroethyl)-3′,4′-dihydro-2′H-spiro[cyclopropane-1,1′-isoquinolin]-4′-yl)urea trifluoroacetate], less than 100 nM.
With `Cc1c(-c2cnn(C)c2)nn(-c2ccccc2)c1NC(=O)N[C@@H]1c2ccccc2C2(CC2)[C@H]1O` [Example 137, 1-(1′,4-dimethyl-1-phenyl-1H,1′H-[3,4′-bipyrazol]-5-yl)-3-((2′R,3′R)-2′-hydroxy-2′,3′-dihydrospiro[cyclopropane-1,1′-inden]-3′-yl)urea] the figure was less than 100 nM; with `O=C(Nc1c(Cl)c(OC[C@H]2CNCCO2)nn1-c1ccccc1)N[C@@H]1c2ccccc2C2(CC2)[C@H]1O` [Example 140, 1-(4-chloro-3-((R)-morpholin-2-ylmethoxy)-1-phenyl-1H-pyrazol-5-yl)-3-((2′R,3′R)-2′-hydroxy-2′,3′-dihydrospiro[cyclopropane-1,1′-inden]-3′-yl)urea], less than 100 nM.
With `CN1CCO[C@@H](COc2nn(-c3ccccc3)c(NC(=O)N[C@@H]3c4ccccc4C4(CC4)[C@H]3O)c2Cl)C1` [Example 141, 1-(4-chloro-3-(((R)-4-methylmorpholin-2-yl)methoxy)-1-phenyl-1H-pyrazol-5-yl)-3-((2′R,3′R)-2′-hydroxy-2′,3′-dihydrospiro[cyclopropane-1,1′-inden]-3′-yl)urea] the figure was less than 100 nM; with `Cc1c(OC[C@H]2CN(C(=O)OC(C)(C)C)CCO2)nn(-c2ccccc2)c1NC(=O)N[C@@H]1c2ccccc2C(C)(C)C[C@H]1O` [Example 143, (R)-tert-butyl 2-(((5-(3-(trans-2-hydroxy-4,4-dimethyl-1,2,3,4-tetrahydronaphthalen-1-yl)ureido)-4-methyl-1-phenyl-1H-pyrazol-3-yl)oxy)methyl)morpholine-4-carboxylate], less than 100 nM; with `COc1nn(-c2ccccc2)c(NC(=O)N[C@@H]2c3ccccc3C(C)(C)C[C@H]2O)c1C` [Example 144, 1-((1R,2R)-2-hydroxy-4,4-dimethyl-1,2,3,4-tetrahydronaphthalen-1-yl)-3-(3-methoxy-4-methyl-1-phenyl-1H-pyrazol-5-yl)urea], less than 100 nM.
For the molecule `Cn1nc(-c2ccccc2)cc1NC(=O)N[C@@H]1c2ccccc2C(C)(C)C[C@H]1O` [Example 145, 1-((1R,2R)-2-hydroxy-4,4-dimethyl-1,2,3,4-tetrahydronaphthalen-1-yl)-3-(1-methyl-3-phenyl-1H-pyrazol-5-yl)urea], the IC50 is 100 to 1000 nM.
With `CCOc1nn(-c2ccccc2)c(NC(=O)N[C@@H]2c3ccccc3C(C)(C)C[C@H]2O)c1C` [Example 146, 1-(3-ethoxy-4-methyl-1-phenyl-1H-pyrazol-5-yl)-3-((1R,2R)-2-hydroxy-4,4-dimethyl-1,2,3,4-tetrahydronaphthalen-1-yl)urea] the figure was less than 100 nM.
With `COCCOc1nn(-c2ccccc2)c(NC(=O)N[C@@H]2c3ccccc3C(C)(C)C[C@H]2O)c1C` [Example 147, 1-((1R,2R)-2-hydroxy-4,4-dimethyl-1,2,3,4-tetrahydronaphthalen-1-yl)-3-(3-(2-methoxyethoxy)-4-methyl-1-phenyl-1H-pyrazol-5-yl)urea], the IC50 is less than 100 nM.
`Cc1c(CCO)nn(-c2ccccc2)c1NC(=O)N[C@@H]1c2ccccc2C(C)(C)C[C@H]1O` [Example 148, 1-((1R,2R)-2-hydroxy-4,4-dimethyl-1,2,3,4-tetrahydronaphthalen-1-yl)-3-(3-(2-hydroxyethyl)-4-methyl-1-phenyl-1H-pyrazol-5-yl)urea]: the IC50 was less than 100 nM.
With `Cc1c(OCCO)nn(-c2ccccc2)c1NC(=O)N[C@@H]1c2ccccc2C(C)(C)C[C@H]1O` [Example 149, 1-((1R,2R)-2-hydroxy-4,4-dimethyl-1,2,3,4-tetrahydronaphthalen-1-yl)-3-(3-(2-hydroxyethoxy)-4-methyl-1-phenyl-1H-pyrazol-5-yl)urea] the figure was less than 100 nM.
